Test results from patent US12624019B2, “Indazole derivative, and preparation method therefor and use thereof” (Leadingtac Pharmaceutical (Shaoxing) Co., Ltd., priority 2020, dated 2026).

Assays:
IRAK4 kinase = target: T1, IRAK4 kinase (Homo sapiens, UniProt Q9NWZ3); assay: IRAK4 kinase activity test (KinEASE-STK HTRF kit); type: biochemical; details: IRAK4 kinase inhibition, 7 μM ATP, 37° C. 120 min
T1 sequence (Q9NWZ3 1-460): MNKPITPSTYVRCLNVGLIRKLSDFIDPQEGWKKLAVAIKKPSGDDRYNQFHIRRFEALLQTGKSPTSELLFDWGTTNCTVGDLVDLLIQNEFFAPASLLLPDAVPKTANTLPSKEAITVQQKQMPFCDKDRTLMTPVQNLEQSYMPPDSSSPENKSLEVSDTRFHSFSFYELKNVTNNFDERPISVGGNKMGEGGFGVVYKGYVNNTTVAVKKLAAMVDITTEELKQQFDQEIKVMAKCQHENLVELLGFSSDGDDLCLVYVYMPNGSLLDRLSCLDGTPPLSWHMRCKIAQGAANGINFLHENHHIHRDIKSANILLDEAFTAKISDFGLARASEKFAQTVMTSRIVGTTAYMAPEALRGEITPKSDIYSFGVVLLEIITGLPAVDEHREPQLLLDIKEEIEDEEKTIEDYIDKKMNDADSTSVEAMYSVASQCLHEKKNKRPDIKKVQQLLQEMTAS
Description: KinEASE-STK Si serine/threonine kinase kit (Cisbio) was used to detect the inhibitory effect of the compound on IRAK4 kinase activity. The specific method was: the compound was dissolved in dimethyl sulfoxide, and then it was diluted with the buffer solution of the kit by equal gradient to make the final concentration range of the tested compound in the reaction system 10000 nM-0.038 nM, then 2.5 nM kinase, 1 μM biotinylated polypeptide substrate and 7 μM adenosine triphosphate (ATP) were added in sequence and incubated at 37° C. for 120 min. Subsequently, anti-phosphorylated serine/threonine antibody coupled with europium element compound and modified XL665 streptavidin were added to the reaction system to terminate the reaction. After incubating at room temperature for 1 h, the fluorescence intensity of each well at the emission wavelength of 620 nm and 665 nm and the excitation wavelength of 337 nm was determined in HTRF mode on the microplate reader EnVision (PerkinElmer), the ratio value was calculated using the formula Ratio=(665 nm/620 nm)×10^4. By comparing with the fluorescence intensity ratio of the control group, the inhibition rate of the compound at each concentration was calculated, and then the IC50 value of the compound was obtained by fitting the nonlinear curve with the logarithmic concentration-inhibition rate by GraphPad Prism 7.

[1] = target: T2, IRAK4 kinase protein in THP-1 cells (Homo sapiens, UniProt Q9NWZ3); assay: Degradation of IRAK4 in THP-1 cells by Western Blot; type: cell-based; details: 24 hours; for DC50 / Dmax: IRAK4 degradation in THP-1 cells; for DC50: read-out: WB DC50; for Dmax: read-out: WB Dmax; for WB D(%) (300 nM) / WB D(%) (1000 nM): degradation percentage of IRAK4 in THP-1 cells; for WB D(%) (300 nM): compound 300 nM; for WB D(%) (1000 nM): compound 1000 nM
T2 construct: endogenous in cells; host or cells: THP-1 cells
T2 sequence (Q9NWZ3 1-460): T1 sequence (Q9NWZ3 1-460)
Description: Each well of the 24-well cell culture plate was inoculated with 0.95 mL THP-1 cells (stem cell bank of Chinese academy of sciences) with a cell density of 5×10^5 cells/well. The cell plate was placed in a 5% carbon dioxide incubator and cultured overnight at 37° C., then 50 μL compound in dimethyl sulfoxide was added. The final concentration of the compound was in the range of 1-3000 nM. After continuous cultivation for 24 hours, the cells were collected into a 1.5 mL centrifuge tube, centrifuged at 1000 rpm and 4° C. for 5 minutes. Cell precipitation was washed twice with 1×DPBS, resuspended cells were lysed with 200 μL lysate (cell lysate was Western and IP cell lysate (Beyotime), supplemented with 1 mM mixture of phenylmethylsulfonyl fluoride and protease inhibitor (Beyotime)), left on ice for 30 minutes, then centrifuged at 14000 g at 4° C. for 10 minutes, and the supernatant was taken to detect IRAK4 protein level by Western blot.
The total protein concentration in the supernatant of cell lysis was determined by BCA protein quantitative kit (Tiangen). According to the concentration of total protein detected by BCA, the supernatant was adjusted to […] with PBS and 5×SDS-PAGE protein loading buffer (Beyotime), bathed in water at 100° C. for 10 minutes, then placed in ice bath for 5 minutes, centrifuged at 14000 g and 4° C. for 5 minutes, and then collected as WB loading sample. Prefabricated glue (KeyGEN) was used for protein electrophoresis with a loading amount of 10 μL (total protein 2 μg). After Tris-MOPS-SDS electrophoresis solution (Adamas), 120V constant pressure electrophoresis was performed. After electrophoresis, the protein on the adhesive strip was transferred to PVDF membrane with a constant current of […] for 50 minutes. After the membrane was transferred, the membrane was added in 1×QuickBlock blocking buffer (Beyotime) and incubated for 30 minutes at room temperature. After blocking, PVDF membranes were incubated with IRAK4 primary antibody (Abcam) overnight at 4°, the membranes were washed with TBST buffer (2.4 g Tris, 8.8 g NaCl, 1.5 mL Tween 20, pH adjusted to 7.4, constant volume to 1 L) for 30 minutes, incubated with secondary antibody (Abcam) for 2 hours at room temperature, finally incubated with Clarity Western ECL Substrate (BIO-RAD) for 5 minutes for luminescence development, chemiluminescence imaging system (Clinx, chemiScope 6200 Touch) was used for development and protein mapping photography. The protein map was analyzed by Clinx chemiluminescence analysis software for grayscale values. Using the formula: grayscale correction value=(target protein grayscale value/corresponding internal reference grayscale value)×[…], the grayscale correction value of each sample was calculated. The degradation rate was calculated by comparing with the grayscale correction value of the control group. Furthermore, DC50 and Dmax values of the compound were obtained by the nonlinear curve fitting with the logarithmic concentration-inhibition rate by GraphPad Prism 7.

[2] = Pharmacokinetic study in mice; type: in vivo, SD mice; details: for AUC(0-t) / bioavailability / Cmax: male, SD, mouse, plasma; for bioavailability: gavage 100 mg/kg vs intravenous 1 mg/kg
Description: The following experimental scheme was used to study the pharmacokinetic behavior of the compound of the present invention in mice and evaluate its pharmacokinetic characteristics.
Experimental scheme: 3 healthy SD mice, male, weighing […], were given 100 mg/kg compound by gavage with a volume of 10 mL/kg, prepared with […] (w/v). Before the test, they were fasted for 12 hours and freely drank water. Food was uniformly consumed 4 h after administration.
Three healthy SD mice, male, weighing […], were given 1 mg/kg compound intravenously with a volume of 5 mL/kg, prepared with 5% DMSO/15% solutol %80% PBS (w/v). Before the test, they were fasted for 12 hours and freely drank water. Food was uniformly consumed 4 h after administration.
0.1 mL of venous blood was taken through the submaxillary venous plexus of mice at 0.08 h, 0.25 h, 0.5 h, 1 h, 2 h, 4 h, 8 h, 24 h after gavage administration and 0.08 h, 0.25 h, 0.5 h, 1 h, 2 h, 4 h, 8 h, 24 h after intravenous administration, placed in a heparin test tube, centrifuged at 11000 rpm for 5 min, and plasma was separated, the concentration of compounds in plasma was determined by liquid chromatography-tandem mass spectrometry.

[3] = po, gavage administration 100 mg/kg

SMILES | IC50 (IRAK4 kinase) | DC50 [1] | Dmax [1] | WB D(%) (300 nM) [1] | WB D(%) (1000 nM) [1] | CL_pred ([2]; intravenous injection 1 mg/kg) | Vss_pred ([2]; intravenous injection 1 mg/kg) | AUC(0-t) ([2]; intravenous injection 1 mg/kg) | bioavailability ([2]; po) | AUC(0-t) [2, 3] | Cmax [2, 3]
COc1cc2nn(C3CCN(CCC4CCN(c5ccc6c(c5)C(=O)N(C5CCC(=O)NC5=O)C6=O)CC4)CC3)cc2cc1NC(=O)c1cccc(C(F)(F)F)n1 (stereo not drawn) [Example 1, N-(2-(1-(2-(1-(2-(2,6-dioxopiperidin-3-yl)-1,3-dioxoisoindolin-5-yl)piperidin-4-yl)ethyl)piperidin-4-yl)-6-methoxy-2H-indazol-5-yl)-6-(trifluoromethyl) pyridinecarboxamide] | 48.6 nM | 25.1 nM | 98.8% | 99.4% | 99.8% | – | – | – | – | – | –
COc1cc2nn(C3CCN(CCOCCOc4ccc5c(c4)C(=O)N(C4CCC(=O)NC4=O)C5=O)CC3)cc2cc1NC(=O)c1cccc(C(F)(F)F)n1 (stereo not drawn) [Control group 1, N-(2-(1-(2-(2-((2-(2,6-dioxopiperidin-3-yl)-1,3-dioxoisoindolin-5-yl)oxy)ethoxy)ethyl)piperidin-4-yl)-6-methoxy-2H-indazol-5-yl)-6-(trifluoromethyl) pyridinecarboxamide, reference compound] | – | – | 73.9% | 73.9% | 65.1% | – | – | – | – | – | –
COc1cc2nn(C3CCN(CCN4CCN(c5ccc6c(c5)C(=O)N(C5CCC(=O)NC5=O)C6=O)CC4)CC3)cc2cc1NC(=O)c1cccc(C(F)(F)F)n1 (stereo not drawn) [Example 3, N-(2-(1-(2-(4-(2-(2,6-dioxopiperidin-3-yl)-1,3-dioxoisoindolin-5-yl)piperazin-1-yl)ethyl)piperidin-4-yl)-6-methoxy-2H-indazol-5-yl)-6-(trifluoromethyl) pyridinecarboxamide] | 56.7 nM | 9.3 nM | 97.7% | 96.7% | 96.4% | – | – | – | – | – | –
COc1cc2nn(C3CCN(CC4CCN(c5ccc6c(c5)C(=O)N(C5CCC(=O)NC5=O)C6=O)CC4)CC3)cc2cc1NC(=O)c1cccc(C(F)(F)F)n1 (stereo not drawn) [Example 2, N-(2-(1-((1-(2-(2,6-dioxopiperidin-3-yl)-1,3-dioxoisoindolin-5-yl)piperidin-4-yl)methyl)piperidin-4-yl)-6-methoxy-2H-indazol-5-yl)-6-(trifluoromethyl) pyridinecarboxamide] | 92.7 nM | 15.7 nM | 90.5% | 90.5% | 86.5% | 8.3 mL/min/kg | 3.3 L/kg | 1920 ng·h/mL | 22.3% | 22400 ng·h/mL | 1230 ng/mL

Continued, values first:

IC50 (IRAK4 kinase) | DC50 [1] | Dmax [1] | WB D(%) (300 nM) [1] | WB D(%) (1000 nM) [1] | CL_pred ([2]; intravenous injection 1 mg/kg) | Vss_pred ([2]; intravenous injection 1 mg/kg) | AUC(0-t) ([2]; intravenous injection 1 mg/kg) | bioavailability ([2]; po) | AUC(0-t) [2, 3] | Cmax [2, 3] | SMILES
32.7 nM | 12.5 nM | 79.1% | 81.1% | 74.4% | – | – | – | – | – | – | CC(C)(O)c1cc2nn(C3CCN(CC(C)(C)N4CCN(c5ccc6c(c5)C(=O)N(C5CCC(=O)NC5=O)C6=O)CC4)CC3)cc2cc1NC(=O)c1cccc(C(F)(F)F)n1 (stereo not drawn) [Example 9]
48 nM | 10.6 nM | 80.2% | 82.9% | 79.6% | 5 mL/min/kg | 2.2 L/kg | 3110 ng·h/mL | 13.4% | 41600 ng·h/mL | 3260 ng/mL | CC(C)(O)c1cc2nn(C3CCN(CC4CCN(c5ccc6c(c5)C(=O)N(C5CCC(=O)NC5=O)C6=O)CC4)CC3)cc2cc1NC(=O)c1cccc(C(F)(F)F)n1 (stereo not drawn) [Example 7, N-(2-(1-((1-(2-(2,6-dioxopiperidin-3-yl)-1,3-dioxoisoindolin-5-yl)piperidin-4-yl)methyl)piperidin-4-yl)-6-(2-hydroxyprop-2-yl)-2H-indazol-5-yl)-6-(trifluoromethyl) pyridinecarboxamide]
60.9 nM | 18.3 nM | 99.8% | 97.4% | 97.9% | – | – | – | – | – | – | CC(C)(O)c1cc2nn(C3CCN(CCC4CCC5(CC4)CCN(c4ccc6c(c4)C(=O)N(C4CCC(=O)NC4=O)C6=O)CC5)CC3)cc2cc1NC(=O)c1cccc(C(F)(F)F)n1 (stereo not drawn) [Example 12, N-(2-(1-(2-(3-(2-(2,6-dioxopiperidin-3-yl)-1,3-dioxoisoindolin-5-yl)-3-azaspiro[5.5]undec-9-yl)ethyl)piperidin-4-yl)-6-(2-hydroxyprop-2-yl)-2H-indazol-5-yl)-6-(trifluoromethyl) pyridinecarboxamide]
